# Data published in the NIST ThermoML archive (doi:10.1016/j.jct.2013.01.010).
# ± gives the expanded uncertainty stated by the source.
# Conditions: 101.33 kPa, Liquid; for speed of sound: Sing-around technique in a fixed-path interferometer; for mass density: Vibrating tube method
SMILES,speed of sound (293.15 K),mass density (293.15 K),speed of sound (298.15 K),mass density (298.15 K),speed of sound (303.15 K),mass density (303.15 K),speed of sound (308.15 K),mass density (308.15 K)
CCn1cc[n+](C)c1.F[B-](F)(F)F [1-ethyl-3-methylimidazolium tetrafluoroborate],1631 ± 2.4 m/s,1283.89 ± 1.5 kg/m3,1619.4 ± 2.4 m/s,1279.91 ± 1.5 kg/m3,1607.6 ± 2.4 m/s,1276.26 ± 1.5 kg/m3,1596.3 ± 2.4 m/s,1272.07 ± 1.4 kg/m3
CC(C)=O [acetone],1186 ± 1.2 m/s,789.987 ± 0.15 kg/m3,1163.8 ± 1.2 m/s,784.405 ± 0.15 kg/m3,1141.4 ± 1.2 m/s,778.871 ± 0.15 kg/m3,1119.1 ± 1.2 m/s,773.066 ± 0.15 kg/m3
C[S+](C)[O-] [dimethyl sulfoxide],1503.2 ± 1.2 m/s,1100.43 ± 0.12 kg/m3,1486.3 ± 1.2 m/s,1095.42 ± 0.12 kg/m3,1469.2 ± 1.2 m/s,1090.41 ± 0.12 kg/m3,1452.7 ± 1.2 m/s,1085.39 ± 0.12 kg/m3
